Patent US8980906B2, “Pyridonemorphinan analogs and biological activity on opioid receptors” (Purdue Pharma L.P., priority 2012, dated 2015)

Columns and labels:
Type in all cases: biochemical
[1] = molecular target: T1, μ-opioid receptor (Homo sapiens (Human), UniProt P35372); experiment: μ-opioid receptor [35S]GTPγS functional assay, U-2 OS cells; details: for Emax: relative to DAMGO, U-2 OS cells
Procedure: (§1) μ-Opioid Receptor Functional Assay Procedures: [^35S]GTPγS functional assays were conducted using freshly thawed μ-receptor membranes prepared in-house from a cell line expressing recombinant μ opioid receptor in a HEK-293, CHO or U-2 OS cell background, or purchased from a commercial source (Perkin Elmer, Shelton, Conn.; or DiscovRx, Fremont, Calif.). Assay reactions were prepared by sequentially adding the following reagents to binding buffer (100 mM NaCl, 10 mM MgCl2, 20 mM HEPES, pH 7.4) on ice (final concentrations indicated): membrane protein (0.026 mg/mL), saponin ([…]), GDP ([…]) and [^35S]GTPγS (0.20 nM; Perkin Elmer, Shelton, Conn.). The prepared membrane solution (190 μl/well) was transferred to 96-shallow well polypropylene plates containing 10 μl of 20× concentrated stock solutions of the agonist [D-Ala^2, N-methyl-Phe^4 Gly-ol^5]-enkephalin (DAMGO) prepared in dimethyl sulfoxide (DMSO). Plates were incubated for 30 min at about 25° C. with shaking. Reactions were terminated by rapid filtration onto 96-well Unifilter GF/B filter plates (Perkin Elmer, Shelton, Conn.) using a 96-well tissue harvester (Perkin Elmer, Shelton, Conn.) followed by three filtration washes with 200 μl of ice-cold wash buffer (10 mM NaH2PO4, 10 mM Na2HPO4, pH 7.4). Filter plates were subsequently dried at 50° C. for 2-3 hours. BetaScint scintillation cocktail (Perkin Elmer, Shelton, Conn.) was added (50 μl/well) and plates were counted using a Packard Top-Count for 1 min/well. Data were analyzed using the sigmoidal dose-response curve fitting functions in GraphPad PRISM v. 3.0, or an in-house function for non-linear, sigmoidal dose-response curve-fitting.
(§2) μ-Opioid Receptor Functional Data: μ GTP EC50 is the concentration of a compound providing 50% of the maximal response for the compound at a μ-opioid receptor.
(§3) μ GTP Emax (%) is the maximal effect elicited by a compound relative to the effect elicited by DAMGO, a standard μ agonist. Generally, the μ GTP Emax (%) value measures the efficacy of a compound to treat or prevent pain or other Conditions.
(§4) The following TABLE 3 provides results on the activity response of certain Compounds of the Invention at the μ- and κ-opioid receptors determined as described above using U-2 OS cells.

[2] = molecular target: κ-opioid receptor (Homo sapiens (Human), UniProt P41145); experiment: κ-opioid receptor [35S]GTPγS functional assay, U-2 OS cells; details: for Emax: relative to U69,593, U-2 OS cells
Procedure: κ-Opioid Receptor Functional Assay Procedures: Functional [^35S]GTPγS binding assays were conducted as follows. κ opioid receptor membrane solution was prepared by sequentially adding final concentrations of 0.026 μg/μl κ membrane protein (in-house), 10 μg/mL saponin, 3 μM GDP and 0.20 nM [^35S]GTPγS to binding buffer (100 mM NaCl, 10 mM MgCl2, 20 mM HEPES, pH 7.4) on ice. The prepared membrane solution (190 μl/well) was transferred to 96-shallow well polypropylene plates containing 10 μl of 20× concentrated stock solutions of agonist prepared in DMSO. Plates were incubated for 30 min at a temperature of about 25° C. with shaking. Reactions were terminated by rapid filtration onto 96-well Unifilter GF/B filter plates (Perkin Elmer, Shelton, Conn.) using a 96-well tissue harvester (Packard) and followed by three filtration washes with 200 μl ice-cold binding buffer (10 mM NaH2PO4, 10 mM Na2HPO4, pH 7.4). Filter plates were subsequently dried at 50° C. for 2-3 hours. Fifty μl/well scintillation cocktail (Perkin Elmer, Shelton, Conn.) was added and plates were counted in a Packard Top-Count for 1 min/well.
κ-Opioid Receptor Functional Data: κ GTP EC50 is the concentration of a compound providing 50% of the maximal response for the compound at a κ receptor.
κ GTP Emax (%) is the maximal effect elicited by a compound relative to the effect elicited by U69,593.
as §4

[3] = molecular target: T1, μ-opioid receptor; experiment: μ-opioid receptor [35S]GTPγS functional assay, HEK-293 or CHO cells
Procedure: as §1, §2, §3
In TABLE 2, activity response of certain Compounds of the Invention to the μ-, δ- and κ-opioid receptors was determined as described above for functional assays using HEK-293 or CHO cells.

[4] = relative to DAMGO, HEK-293 or CHO cells

COc1ccc2c(c1)[C@]13CCN[C@H](C2)[C@]1(O)Cc1cc(C(N)=O)c(=O)[nH]c1C3 [Compound 32, (6R,6aS,12aR)-6a-hydroxy-2-methoxy-10-oxo-6,6a,7,10,11,12-hexahydro-5H-6,12a-(epiminoethano)naphtho[2,1-g]quinoline-9-carboxamide]
EC50 [1]: > 20000 nM | Emax [1]: 17.5% | EC50 [2]: > 20000 nM | Emax [2]: 6.7 ± 6.56%

NC(=O)c1cc2c([nH]c1=O)C[C@]13CCN(CC(F)(F)F)[C@H](Cc4ccc(O)cc41)[C@]3(O)C2 [Compound 34, (6R,6aS,12aR)-2,6a-dihydroxy-10-oxo-15-(2,2,2-trifluoroethyl)-6,6a,7,10,11,12-hexahydro-5H-6,12a-(epiminoethano)naphtho[2,1-g]quinoline-9-carboxamide]
EC50 [1]: > 20000 nM | Emax [1]: 8.5% | EC50 [2]: > 20000 nM | Emax [2]: 0%

NC(=O)c1cc2c([nH]c1=O)C[C@]13CCN(CCF)[C@H](Cc4ccc(O)cc41)[C@]3(O)C2 [Compound 35, (6R,6aS,12aR)-15-(2-fluoroethyl)-2,6a-dihydroxy-10-oxo-6,6a,7,10,11,12-hexahydro-5H-6,12a-(epiminoethano)naphtho[2,1-g]quinoline-9-carboxamide]
EC50 [1]: > 20000 nM | Emax [1]: 2.5% | EC50 [2]: 93.7 ± 27.7 nM | Emax [2]: 66 ± 1.53%

CN1CC[C@]23Cc4c(cc(C(N)=O)c(=O)n4C)C[C@@]2(O)[C@H]1Cc1ccc(O)cc13 [Compound 39, (6R,6aS,12aR)-2,6a-dihydroxy-11,15-dimethyl-10-oxo-6,6a,7,10,11,12-hexahydro-5H-6,12a-(epiminoethano)naphtho[2,1-g]quinoline-9-carboxamide]
EC50 [1]: 164 ± 59 nM | Emax [1]: 33.7 ± 8.01% | EC50 [2]: 641.6 ± 3.49 nM | Emax [2]: 54 ± 3.61%

COc1ccc2c(c1)[C@]13CCN(C)[C@H](C2)[C@]1(O)Cc1cc(C(=O)O)c(=O)[nH]c1C3 [Compound 40, (6R,6aS,12aR)-6a-hydroxy-2-methoxy-15-methyl-10-oxo-6,6a,7,10,11,12-hexahydro-5H-6,12a-(epiminoethano)naphtho[2,1-g]quinoline-9-carboxylic acid]
EC50 [1]: 13900 ± 1630 nM | Emax [1]: 72 ± 4.16% | EC50 [2]: > 20000 nM | Emax [2]: 96 ± 1.53%

CN1CC[C@]23Cc4[nH]c(=O)c(C(=O)O)cc4C[C@@]2(O)[C@H]1Cc1ccc(O)cc13 [Compound 41, (6R,6aS,12aR)-2,6a-dihydroxy-15-methyl-10-oxo-6,6a,7,10,11,12-hexahydro-5H-6,12a-(epiminoethano)naphtho[2,1-g]quinoline-9-carboxylic acid]
EC50 [1]: 111 ± 8.9 nM | Emax [1]: 58.2 ± 2.32% | EC50 [2]: 568 ± 33.3 nM | Emax [2]: 70 ± 4.58%

CN1CC[C@]23Cc4[nH]c(=O)c(C(=O)NCC5CCCCC5)cc4C[C@@]2(O)[C@H]1Cc1ccc(O)cc13 [Compound 44, (6R,6aS,12aR)—N-(cyclohexylmethyl)-2,6a-dihydroxy-15-methyl-10-oxo-6,6a,7,10,11,12-hexahydro-5H-6,12a-(epiminoethano)naphtho[2,1-g]quinoline-9-carboxamide]
EC50 [1]: 439 ± 27.4 nM | Emax [1]: 88.3 ± 0.88% | EC50 [2]: 92.5 ± 24.2 nM | Emax [2]: 67 ± 1%

CN1CC[C@]23Cc4[nH]c(=O)c(C(=O)NCc5ccccc5)cc4C[C@@]2(O)[C@H]1Cc1ccc(O)cc13 [Compound 45, (6R,6aS,12aR)—N-benzyl-2,6a-dihydroxy-15-methyl-10-oxo-6,6a,7,10,11,12-hexahydro-5H-6,12a-(epiminoethano)naphtho[2,1-g]quinoline-9-carboxamide]
EC50 [1]: 306 ± 25.2 nM | Emax [1]: 90 ± 1.53% | EC50 [2]: 128 ± 8.96 nM | Emax [2]: 94.3 ± 5.61%

CN(C)C(=O)c1cc2c([nH]c1=O)C[C@]13CCN(C)[C@H](Cc4ccc(O)cc41)[C@]3(O)C2 [Compound 46, (6R,6aS,12aR)-2,6a-dihydroxy-N,N,15-trimethyl-10-oxo-6,6a,7,10,11,12-hexahydro-5H-6,12a-(epiminoethano)naphtho[2,1-g]quinoline-9-carboxamide]
EC50 [1]: 157 ± 16.4 nM | Emax [1]: 84.7 ± 2.19% | EC50 [2]: 624 ± 83.6 nM | Emax [2]: 73 ± 6.99%

CN1CC[C@]23Cc4[nH]c(=O)c(C(=O)N5CCOCC5)cc4C[C@@]2(O)[C@H]1Cc1ccc(O)cc13 [Compound 47, (6R,6aS,12aR)-2,6a-dihydroxy-15-methyl-9-(morpholine-4-carbonyl)-6a,7,11,12-tetrahydro-5H-6,12a-(epiminoethano)naphtho[2,1-g]quinolin-10(6H)-one]
EC50 [1]: 156 ± 12.7 nM | Emax [1]: 82 ± 1.73% | EC50 [2]: 511 ± 139 nM | Emax [2]: 50 ± 2.74%

O=C(c1cc2c([nH]c1=O)C[C@]13CCN(CC4CC4)[C@H](Cc4ccc(O)cc41)[C@@H]3C2)N1CCS(=O)(=O)CC1 [Compound 60, (6R,6aR,12aS)-15-(cyclopropylmethyl)-9-(1,1-dioxidothiomorpholine-4-carbonyl)-2-hydroxy-6,6a,7,12-tetrahydro-5H-6,12a-(epiminoethano)naphtho[2,1-g]quinolin-10(11H)-one]
EC50 [3]: > 20 µM | Emax [3, 4]: -1 ± 1%

O=C(N[C@@H]1c2ccccc2C[C@@H]1O)c1cc2c([nH]c1=O)C[C@]13CCN(CC4CC4)[C@H](Cc4ccc(O)cc41)[C@@H]3C2 [Compound 61, (6R,6aR,12aS)-15-(cyclopropylmethyl)-2-hydroxy-N-((1R,2S)-2-hydroxy-2,3-dihydro-1H-inden-1-yl)-10-oxo-6,6a,7,10,11,12-hexahydro-5H-6,12a-(epiminoethano)naphtho[2,1-g]quinoline-9-carboxamide]
EC50 [3]: > 20 µM | Emax [3, 4]: -1%

O=C(N[C@H]1c2ccccc2C[C@H]1O)c1cc2c([nH]c1=O)C[C@]13CCN(CC4CC4)[C@H](Cc4ccc(O)cc41)[C@@H]3C2 [Compound 62, (6R,6aR,12aS)-15-(cyclopropylmethyl)-2-hydroxy-N-((1S,2R)-2-hydroxy-2,3-dihydro-1H-inden-1-yl)-10-oxo-6,6a,7,10,11,12-hexahydro-5H-6,12a-(epiminoethano)naphtho[2,1-g]quinoline-9-carboxamide]
EC50 [3]: > 20 µM | Emax [3, 4]: -1%

CN(C(=O)c1cc2c([nH]c1=O)C[C@]13CCN(CC4CC4)[C@H](Cc4ccc(O)cc41)[C@@H]3C2)C1CCCCC1 [Compound 63, (6R,6aR,12aS)—N-cyclohexyl-15-(cyclopropylmethyl)-2-hydroxy-N-methyl-10-oxo-6,6a,7,10,11,12-hexahydro-5H-6,12a-(epiminoethano)naphtho[2,1-g]quinoline-9-carboxamide]
EC50 [3]: > 20 µM | Emax [3, 4]: -1%

O=C(c1cc2c([nH]c1=O)C[C@]13CCN(CC4CC4)[C@H](Cc4ccc(O)cc41)[C@@H]3C2)N1Cc2ccccc2C1 [Compound 64, (6R,6aR,12aS)-15-(cyclopropylmethyl)-2-hydroxy-9-(isoindoline-2-carbonyl)-6,6a,7,12-tetrahydro-5H-6,12a-(epiminoethano)naphtho[2,1-g]quinolin-10(11H)-one]
EC50 [3]: > 20 µM | Emax [3, 4]: 3.5%

O=C(c1cc2c([nH]c1=O)C[C@]13CCN(CC4CC4)[C@H](Cc4ccc(O)cc41)[C@@H]3C2)N1[C@@H]2CC[C@H]1C[C@@H](O)C2 [Compound 65, (6R,6aR,12aS)-15-(cyclopropylmethyl)-2-hydroxy-9-((1R,R,5S)-3-hydroxy-8-azabicyclo[3.2.1]octane-8-carbonyl)-6,6a,7,12-tetrahydro-5H-6,12a-(epiminoethano)naphtho[2,1-g]quinolin-10(11H)-one]
EC50 ([3]; GTPγS, HEK-293 or CHO cells, bound given in μM, read-out: μ EC50): > 20 µM | μ Emax (%) [3, 4]: 4.00%
